What was measured:
hair-matrix cells = experiment: Proliferation effect of cultured hair-matrix cells; format: cell-based, Mouse; conditions: cultured 6 days; for Relative value of the number of cells: control group = 100%
Experimental: Mouse hair tissues were collected and hair-matrix cells were cultured by the method disclosed by Tanigaki, et al., using serum free media (Tanigaki, et al., (1990), Arch. Dermatol. Res. 282: 402-407).
On the first day after the start of culturing hair-matrix cells, the culture media were changed to those containing the above-mentioned chromene compounds.
After culturing the hair-matrix cells for 6 days, they were separated from the culture dishes and the number of cells was counted. The effect of each chromene compound is shown by a relative ratio with the number of cells in the control group (the group cultured in a serum-free medium) being defined as 100%.

[1] = reported in Annual Report of Toyama Prefectural Institute for Pharmaceutical Research, 1998; cited from earlier work

| SMILES | Proliferation rate (hair-matrix cells; 1 μg/ml in culture medium) [% increase over control] | Relative value of the number of cells (hair-matrix cells; 1 μg/ml in culture medium) [% control] | Proliferation rate (hair-matrix cells; 10 μg/ml in culture medium) [% increase over control] | Relative value of the number of cells (hair-matrix cells; 10 μg/ml in culture medium) [% control] | acute toxicity [1] |
| --- | --- | --- | --- | --- | --- |
| COc1cc(C(C)=O)cc2c1OC(C)(C)C=C2 [Acetovanillochromene, 6-acetyl-8-methoxy-2,2-dimethylchromene] | 33 | 133 | 35 | 135 | – |
| COc1c(C(C)=O)cc2c(c1OC)OC(C)(C)C=C2 [Methylripariochromene A, 6-acetyl-7,8-dimethoxy-2,2-dimethylchromene] | 12 | 112 | 53 | 153 | no toxicity |
| COc1c(C(C)O)cc2c(c1OC)OC(C)(C)C=C2 (stereo not shown) [Orthochromene A, 6-(1-hydroxyethyl)-7,8-dimethoxy-2,2-dimethylchromene] | 18 | 118 | 44 | 144 | – |

Source: patent US20070254946A1, “Hair Growth Stimulants” (priority 2003, published 2007)
